Eight compounds from ChEMBL document CHEMBL1201862, “PubChem BioAssay data set” (2004) can be followed below.

Active and inactive are the calls of the source.

Test [1] addresses T1, Tyrosine-protein phosphatase non-receptor type 7 (Homo sapiens, UniProt P35236).
T1 sequence (P35236 whole entry): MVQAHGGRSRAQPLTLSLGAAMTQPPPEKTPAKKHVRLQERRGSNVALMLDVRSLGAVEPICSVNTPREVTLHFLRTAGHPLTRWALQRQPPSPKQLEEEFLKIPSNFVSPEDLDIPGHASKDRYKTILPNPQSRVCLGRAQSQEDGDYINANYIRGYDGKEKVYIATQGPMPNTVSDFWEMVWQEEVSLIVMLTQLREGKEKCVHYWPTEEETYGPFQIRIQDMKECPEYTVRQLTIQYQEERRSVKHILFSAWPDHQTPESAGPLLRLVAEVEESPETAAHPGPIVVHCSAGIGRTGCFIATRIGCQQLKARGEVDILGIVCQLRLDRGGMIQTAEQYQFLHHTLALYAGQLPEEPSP
It is filed as functional.

For test [2], the target named is T2, Dual specificity protein phosphatase 6 (Rattus norvegicus, UniProt Q64346).
T2 sequence (Q64346 whole entry): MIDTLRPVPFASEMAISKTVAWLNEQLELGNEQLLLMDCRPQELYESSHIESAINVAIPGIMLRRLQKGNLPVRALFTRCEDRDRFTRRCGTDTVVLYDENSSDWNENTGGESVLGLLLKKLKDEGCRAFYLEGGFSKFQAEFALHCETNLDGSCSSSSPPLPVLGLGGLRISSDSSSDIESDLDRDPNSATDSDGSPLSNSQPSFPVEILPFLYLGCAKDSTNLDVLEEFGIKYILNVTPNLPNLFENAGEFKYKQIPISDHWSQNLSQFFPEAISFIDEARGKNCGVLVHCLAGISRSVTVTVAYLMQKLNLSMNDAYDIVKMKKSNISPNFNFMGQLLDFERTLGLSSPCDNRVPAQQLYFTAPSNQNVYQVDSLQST
It is filed as functional.

Test [3] deals with Glyceraldehyde-3-phosphate dehydrogenase (Homo sapiens, UniProt P04406).
Chain of Glyceraldehyde-3-phosphate dehydrogenase (P04406 whole entry): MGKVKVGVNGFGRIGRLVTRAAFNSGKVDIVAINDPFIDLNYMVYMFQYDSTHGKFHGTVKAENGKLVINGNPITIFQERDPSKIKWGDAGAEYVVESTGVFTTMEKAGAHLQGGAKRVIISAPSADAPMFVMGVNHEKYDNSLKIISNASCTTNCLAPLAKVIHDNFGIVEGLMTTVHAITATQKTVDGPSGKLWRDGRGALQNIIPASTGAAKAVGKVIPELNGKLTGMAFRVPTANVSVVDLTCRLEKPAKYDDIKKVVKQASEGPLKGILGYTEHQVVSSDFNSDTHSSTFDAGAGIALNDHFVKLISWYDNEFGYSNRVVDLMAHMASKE
Test [4] concerns the target T2, Dual specificity protein phosphatase 6.
The target of test [5] is Heat shock cognate 71 kDa protein (Homo sapiens, UniProt P11142). Kind of test: In Vitro Hsc70 Dose Response Fluorescence Polarization Assay. [Related pubchem assays: 1072 ]. On the technique in general: Fluorescence polarisation rises when a labelled molecule tumbles more slowly, as on binding a larger partner.
Chain of Heat shock cognate 71 kDa protein (P11142 whole entry): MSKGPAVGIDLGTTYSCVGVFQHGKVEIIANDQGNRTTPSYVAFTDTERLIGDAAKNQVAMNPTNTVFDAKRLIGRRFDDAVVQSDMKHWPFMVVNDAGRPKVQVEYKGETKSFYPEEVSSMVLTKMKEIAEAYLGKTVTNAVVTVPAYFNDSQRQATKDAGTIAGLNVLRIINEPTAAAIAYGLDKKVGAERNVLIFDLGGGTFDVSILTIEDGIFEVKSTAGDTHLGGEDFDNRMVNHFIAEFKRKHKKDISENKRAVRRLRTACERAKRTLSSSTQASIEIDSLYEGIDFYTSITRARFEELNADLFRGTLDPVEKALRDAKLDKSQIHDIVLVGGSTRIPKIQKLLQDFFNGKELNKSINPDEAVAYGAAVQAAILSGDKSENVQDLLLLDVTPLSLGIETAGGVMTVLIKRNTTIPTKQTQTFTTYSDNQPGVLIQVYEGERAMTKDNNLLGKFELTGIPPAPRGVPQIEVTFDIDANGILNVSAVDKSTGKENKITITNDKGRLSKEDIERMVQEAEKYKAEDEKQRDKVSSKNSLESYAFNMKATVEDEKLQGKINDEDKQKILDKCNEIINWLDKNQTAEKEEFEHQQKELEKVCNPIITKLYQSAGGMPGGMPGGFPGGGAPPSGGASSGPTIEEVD
For test [6], the target named is Heat shock 70 kDa protein 1A (Homo sapiens, UniProt P0DMV8). Nature of the test: Hsp70 inhibitors, SAR follow-up, biochemical, fluorescence polarization (AID 1072).
Chain of Heat shock 70 kDa protein 1A (P0DMV8 whole entry): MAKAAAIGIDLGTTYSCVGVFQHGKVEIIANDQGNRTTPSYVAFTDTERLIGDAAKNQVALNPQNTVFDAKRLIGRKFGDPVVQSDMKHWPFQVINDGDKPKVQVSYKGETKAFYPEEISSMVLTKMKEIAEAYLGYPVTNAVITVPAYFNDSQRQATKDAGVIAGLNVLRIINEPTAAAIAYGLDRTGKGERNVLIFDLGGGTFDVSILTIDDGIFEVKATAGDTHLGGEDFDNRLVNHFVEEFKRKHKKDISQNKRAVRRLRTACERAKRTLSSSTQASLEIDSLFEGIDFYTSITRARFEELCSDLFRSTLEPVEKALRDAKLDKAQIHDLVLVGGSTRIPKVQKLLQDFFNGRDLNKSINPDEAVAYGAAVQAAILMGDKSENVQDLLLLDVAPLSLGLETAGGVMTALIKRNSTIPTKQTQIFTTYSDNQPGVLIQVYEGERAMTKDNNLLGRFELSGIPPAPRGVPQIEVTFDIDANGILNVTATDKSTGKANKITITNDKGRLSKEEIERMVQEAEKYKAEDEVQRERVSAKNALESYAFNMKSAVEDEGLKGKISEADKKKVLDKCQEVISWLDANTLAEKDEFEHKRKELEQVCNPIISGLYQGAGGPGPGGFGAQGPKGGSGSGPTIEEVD
Test [7] deals with Vibrio harveyi. Nature of the test: Quorum Sensing, LuxS, LuxPQ Measured in Microorganism System Using Plate Reader - 2035-01_Inhibitor_DoseNoFile_DryPowder_Activity. [Related pubchem assays (depositor defined):AID2106]. It is filed as functional, organism-based.
The test system of test [8] is Vibrio harveyi. Nature of the test: inhibitors of AI-2 quorum sensing in V. harveyi, dose response, LuxS, LuxPQ, dry powder, set 2 (AID 493072). In kind it is functional, organism-based.
For the next test, the system named is HeLa. Kind of test: Cytotoxicity counterscreen assay for transcriptional activators of heat shock protein 70 (Hsp70). [Related pubchem assays: 1203, 1252 ]. Conditions: Homo sapiens. In kind it is functional. (In general: The purpose of a counterscreen is to sort out artefacts and off-target activity.);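 further: cells exposed to compound for 16 hours before readout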
Test [9] addresses T3, Alkaline phosphatase, tissue-nonspecific isozyme (Homo sapiens, UniProt P05186).
T3 sequence (P05186 whole entry): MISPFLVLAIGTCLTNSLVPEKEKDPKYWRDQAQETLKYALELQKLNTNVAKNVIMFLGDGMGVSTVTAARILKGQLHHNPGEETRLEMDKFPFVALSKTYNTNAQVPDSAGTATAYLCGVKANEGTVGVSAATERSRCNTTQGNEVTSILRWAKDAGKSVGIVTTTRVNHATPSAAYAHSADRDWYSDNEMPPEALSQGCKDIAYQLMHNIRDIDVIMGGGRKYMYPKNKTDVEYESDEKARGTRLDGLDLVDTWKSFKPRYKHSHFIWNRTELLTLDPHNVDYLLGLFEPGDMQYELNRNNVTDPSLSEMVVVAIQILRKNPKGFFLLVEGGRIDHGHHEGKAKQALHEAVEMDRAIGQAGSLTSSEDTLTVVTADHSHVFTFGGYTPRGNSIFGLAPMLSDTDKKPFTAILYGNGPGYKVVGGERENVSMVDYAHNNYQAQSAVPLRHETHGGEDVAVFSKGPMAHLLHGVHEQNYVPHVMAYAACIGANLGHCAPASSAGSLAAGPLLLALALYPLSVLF

A further test deals with H9c2. Kind of test: cells. It is filed as functional, cell-based. As to conditions: Rattus norvegicus, H9c2, Myocardium.
The target of a further test is Mucolipin-3 (Homo sapiens, UniProt Q8TDD5). Nature of the test: Dose response cell-based high-throughput screening assay for agonists of the transient receptor potential channel ML3 (TRPML3). [Related pubchem assays: 1526, 1424, 1448 ]. In kind it is functional.
Another test has as its target Ion channel NompC (Danio rerio, UniProt Q7T1G6). Kind of test: Fluorescence counterscreen assay for TRPML3 agonists: dose response cell-based high-throughput screening assay to identify agonists of the transient receptor potential channel N1 (TRPN1). [Related pubchem assays: 1526, 1424, 1448 ]. In kind it is functional.
A further test deals with Chaperone protein dnaK (Escherichia coli, UniProt C3TRK2). Kind of test: DnaK beta-domain binding affinity, SAR follow-up, orthogonal assay for DnaK modulator project, biophysical, isothermal titration calorimetry, full-length DnaK (AID 1495).
Chain of Chaperone protein dnaK (C3TRK2 whole entry): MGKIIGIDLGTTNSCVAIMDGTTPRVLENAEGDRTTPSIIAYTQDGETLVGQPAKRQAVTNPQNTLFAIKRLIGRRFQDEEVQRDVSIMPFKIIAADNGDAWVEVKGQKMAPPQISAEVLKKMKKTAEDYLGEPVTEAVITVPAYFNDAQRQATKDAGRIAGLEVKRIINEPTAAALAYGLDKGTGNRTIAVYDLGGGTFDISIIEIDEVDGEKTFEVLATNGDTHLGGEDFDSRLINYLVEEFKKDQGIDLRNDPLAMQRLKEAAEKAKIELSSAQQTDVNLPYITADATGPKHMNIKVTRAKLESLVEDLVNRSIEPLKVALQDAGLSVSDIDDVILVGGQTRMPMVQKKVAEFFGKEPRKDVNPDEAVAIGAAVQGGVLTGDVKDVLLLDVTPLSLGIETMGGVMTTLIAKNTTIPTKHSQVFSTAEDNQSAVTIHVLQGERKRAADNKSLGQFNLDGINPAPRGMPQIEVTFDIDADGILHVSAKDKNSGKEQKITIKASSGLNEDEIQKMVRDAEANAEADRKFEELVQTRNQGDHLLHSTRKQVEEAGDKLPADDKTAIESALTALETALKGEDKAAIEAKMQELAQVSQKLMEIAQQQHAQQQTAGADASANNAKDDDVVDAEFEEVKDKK
Test [10] deals with T4, Dual specificity protein phosphatase 3 (Homo sapiens, UniProt P51452). Kind of test: MOA VHR1 Fluorescent secondary assay for identification of redox-state modulating compounds. [Related pubchem assays (depositor defined):AID1654, AID1661, AID1878, AID1957].
T4 sequence (P51452 whole entry): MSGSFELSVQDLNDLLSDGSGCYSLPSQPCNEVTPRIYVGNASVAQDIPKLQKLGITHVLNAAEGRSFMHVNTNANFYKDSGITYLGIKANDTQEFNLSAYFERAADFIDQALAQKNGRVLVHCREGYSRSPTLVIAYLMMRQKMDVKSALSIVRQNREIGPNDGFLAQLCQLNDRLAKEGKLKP
Test [11] addresses T4, Dual specificity protein phosphatase 3. Nature of the test: SAR VHR1 Fluorescent Assay for In Vitro dose response studies. [Related pubchem assays (depositor defined):AID1654, AID1661, AID1878, AID1992, AID2004, AID2070, AID2085]. It is filed as functional.
Test [12] deals with T1, Tyrosine-protein phosphatase non-receptor type 7. Kind of test: redox-dependent HePTP inhibition, mechanism study, biochemical, fluorescence (AID 2068). It is filed as functional.
For test [13], the target named is T5, Short transient receptor potential channel 4 (Mus musculus, UniProt Q9QUQ5).
T5 sequence (Q9QUQ5 whole entry): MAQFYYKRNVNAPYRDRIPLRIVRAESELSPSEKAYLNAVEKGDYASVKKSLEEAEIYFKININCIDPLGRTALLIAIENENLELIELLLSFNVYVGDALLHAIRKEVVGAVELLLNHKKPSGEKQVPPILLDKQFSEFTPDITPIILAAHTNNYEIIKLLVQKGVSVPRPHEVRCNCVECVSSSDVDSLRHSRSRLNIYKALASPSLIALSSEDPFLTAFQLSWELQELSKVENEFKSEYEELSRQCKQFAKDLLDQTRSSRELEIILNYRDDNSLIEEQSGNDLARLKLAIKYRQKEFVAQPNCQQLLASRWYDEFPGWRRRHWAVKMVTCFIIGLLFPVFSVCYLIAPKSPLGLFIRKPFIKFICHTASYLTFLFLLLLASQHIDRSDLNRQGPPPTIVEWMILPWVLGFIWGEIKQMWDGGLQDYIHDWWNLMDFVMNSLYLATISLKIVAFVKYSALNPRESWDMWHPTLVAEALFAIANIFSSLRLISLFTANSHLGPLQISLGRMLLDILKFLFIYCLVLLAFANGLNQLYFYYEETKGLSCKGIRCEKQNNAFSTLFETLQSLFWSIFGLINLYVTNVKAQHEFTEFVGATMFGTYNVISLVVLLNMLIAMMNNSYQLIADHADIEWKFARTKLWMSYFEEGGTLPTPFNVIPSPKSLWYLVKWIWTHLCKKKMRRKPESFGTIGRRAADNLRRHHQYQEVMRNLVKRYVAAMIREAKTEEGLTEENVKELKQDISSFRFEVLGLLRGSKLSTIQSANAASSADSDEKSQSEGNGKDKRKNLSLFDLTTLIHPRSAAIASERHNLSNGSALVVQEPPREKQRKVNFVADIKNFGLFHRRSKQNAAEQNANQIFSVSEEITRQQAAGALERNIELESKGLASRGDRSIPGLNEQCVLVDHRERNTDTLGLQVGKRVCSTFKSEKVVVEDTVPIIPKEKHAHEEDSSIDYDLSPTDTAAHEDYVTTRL
Kind of test: mouse TRPC4 channel activators, dose response, cell-based, HEK293 TRPC4/mu-opioid, Fluo-4 calcium (AID 434937). It is filed as functional.

The target in test [14] is 5-hydroxytryptamine receptor 1A (Homo sapiens, UniProt P08908). In kind it is functional.
Chain of 5-hydroxytryptamine receptor 1A (P08908 whole entry): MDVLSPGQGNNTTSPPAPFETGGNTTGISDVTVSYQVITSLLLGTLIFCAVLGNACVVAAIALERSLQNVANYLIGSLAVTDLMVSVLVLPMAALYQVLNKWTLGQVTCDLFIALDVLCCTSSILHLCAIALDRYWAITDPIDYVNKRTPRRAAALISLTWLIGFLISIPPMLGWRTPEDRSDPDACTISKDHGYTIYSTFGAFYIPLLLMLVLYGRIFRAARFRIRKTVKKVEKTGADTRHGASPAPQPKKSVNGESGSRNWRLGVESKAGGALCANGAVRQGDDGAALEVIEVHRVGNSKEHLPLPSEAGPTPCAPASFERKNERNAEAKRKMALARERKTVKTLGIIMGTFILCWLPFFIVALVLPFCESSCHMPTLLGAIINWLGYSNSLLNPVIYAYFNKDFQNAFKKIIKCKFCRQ
The target of test [15] is Lysosomal acid glucosylceramidase (Homo sapiens, UniProt P04062). Kind of test: Dose response cell-based high throughput screening assay to identify enhancers of beta-glucosidase activity. [Related pubchem assays: 784 ]. In kind it is functional.
Chain of Lysosomal acid glucosylceramidase (P04062 whole entry): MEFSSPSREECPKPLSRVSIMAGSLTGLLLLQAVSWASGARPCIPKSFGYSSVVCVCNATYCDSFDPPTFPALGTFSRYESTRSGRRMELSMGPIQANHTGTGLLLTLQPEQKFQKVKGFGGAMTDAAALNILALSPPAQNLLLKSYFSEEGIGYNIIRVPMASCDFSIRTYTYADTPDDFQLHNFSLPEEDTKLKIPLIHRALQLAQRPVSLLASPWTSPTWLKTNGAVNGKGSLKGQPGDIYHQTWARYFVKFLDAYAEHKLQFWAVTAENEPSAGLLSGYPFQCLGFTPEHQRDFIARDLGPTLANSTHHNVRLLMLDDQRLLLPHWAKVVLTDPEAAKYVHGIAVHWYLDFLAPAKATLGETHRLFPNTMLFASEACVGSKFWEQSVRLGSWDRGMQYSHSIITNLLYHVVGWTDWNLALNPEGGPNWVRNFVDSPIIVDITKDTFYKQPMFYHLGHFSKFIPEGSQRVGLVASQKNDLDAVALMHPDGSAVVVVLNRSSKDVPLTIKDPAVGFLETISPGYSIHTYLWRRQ

Chain of Ion channel NompC (Q7T1G6 whole entry): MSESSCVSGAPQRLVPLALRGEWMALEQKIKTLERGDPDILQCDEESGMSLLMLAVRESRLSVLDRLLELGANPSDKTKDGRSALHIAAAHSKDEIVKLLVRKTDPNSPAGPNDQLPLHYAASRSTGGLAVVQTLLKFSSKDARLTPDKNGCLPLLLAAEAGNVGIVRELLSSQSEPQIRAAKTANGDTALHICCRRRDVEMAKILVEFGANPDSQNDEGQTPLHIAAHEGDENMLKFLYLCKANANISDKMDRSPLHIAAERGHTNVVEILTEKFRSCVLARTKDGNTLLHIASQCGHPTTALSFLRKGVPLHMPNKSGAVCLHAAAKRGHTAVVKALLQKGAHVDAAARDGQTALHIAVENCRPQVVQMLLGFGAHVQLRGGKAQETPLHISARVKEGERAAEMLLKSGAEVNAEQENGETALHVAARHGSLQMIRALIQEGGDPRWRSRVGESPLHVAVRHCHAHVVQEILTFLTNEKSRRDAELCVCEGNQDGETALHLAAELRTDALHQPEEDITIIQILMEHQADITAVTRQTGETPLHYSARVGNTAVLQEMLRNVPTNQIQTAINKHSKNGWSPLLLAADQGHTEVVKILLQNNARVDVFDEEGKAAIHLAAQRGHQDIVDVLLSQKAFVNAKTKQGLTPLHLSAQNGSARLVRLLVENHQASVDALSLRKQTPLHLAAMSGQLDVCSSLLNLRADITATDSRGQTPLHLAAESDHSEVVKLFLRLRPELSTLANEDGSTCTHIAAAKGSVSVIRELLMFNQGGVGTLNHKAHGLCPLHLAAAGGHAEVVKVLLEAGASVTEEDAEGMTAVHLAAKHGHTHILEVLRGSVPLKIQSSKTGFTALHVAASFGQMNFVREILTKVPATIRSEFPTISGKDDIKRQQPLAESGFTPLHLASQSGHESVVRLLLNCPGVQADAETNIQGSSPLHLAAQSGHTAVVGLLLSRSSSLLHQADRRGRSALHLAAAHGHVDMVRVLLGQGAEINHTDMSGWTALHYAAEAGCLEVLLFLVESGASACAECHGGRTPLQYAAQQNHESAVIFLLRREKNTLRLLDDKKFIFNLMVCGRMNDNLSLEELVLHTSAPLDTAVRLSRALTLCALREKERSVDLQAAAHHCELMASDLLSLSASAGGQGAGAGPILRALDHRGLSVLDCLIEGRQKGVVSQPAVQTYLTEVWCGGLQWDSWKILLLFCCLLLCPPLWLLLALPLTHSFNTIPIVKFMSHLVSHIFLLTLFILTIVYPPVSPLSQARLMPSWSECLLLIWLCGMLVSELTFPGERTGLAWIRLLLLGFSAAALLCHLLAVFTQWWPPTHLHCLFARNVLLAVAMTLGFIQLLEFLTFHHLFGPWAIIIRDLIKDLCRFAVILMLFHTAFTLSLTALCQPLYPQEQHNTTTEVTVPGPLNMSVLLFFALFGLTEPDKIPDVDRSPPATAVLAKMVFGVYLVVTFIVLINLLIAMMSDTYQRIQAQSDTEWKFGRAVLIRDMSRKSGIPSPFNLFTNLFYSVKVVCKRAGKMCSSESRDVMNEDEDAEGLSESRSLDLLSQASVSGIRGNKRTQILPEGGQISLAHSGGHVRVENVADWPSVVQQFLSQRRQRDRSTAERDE

Consider `O=C(O)C1Nc2c(I)cccc2C2C=CCC12` (stereo not given), for which the IC50 (usually the point on the concentration scale where inhibition reaches its midpoint) in test [1] was 71.4 µM (active); in test [2], > 100 µM (inactive); in test [3], 47.8 µM (active); in test [4], > 100 µM (inactive); in test [5], 14.1 µM (active); in test [6], 3.13 µM (active).
`C=Cn1c(C(=O)O)ccc1-c1ccc(CC)cc1`: the figures for the AC50 with Vibrio harveyi [7], in the test on Vibrio harveyi [8] and in the test with Vibrio harveyi [8] (Vibrio harveyi) were 2.73 µM (active), 5.53 µM (active) and 4.66 µM (active), respectively.
Regarding `COc1ccc(C(CNC(=O)c2cc3ccccc3o2)N2CCCCC2)cc1` (stereo not given), the CC50 (usually the concentration giving 50% cytotoxicity) in the test with HeLa is listed as > 99 µM (not active).
For `Cc1ccc(O)c(-c2cc(C(=O)NCc3ccccc3)[nH]n2)c1`, the EC50 (commonly the concentration that produces a half-maximal response) in test [9] was > 100 µM (not active).
Turning to `CSc1nsc(SC)c1C(=O)N1CCN(S(=O)(=O)c2ccc(C)cc2)C1C(C)C` (stereo not given), the IC50 with H9c2 is > 79 µM (inactive). For the same compound, the EC50 on Mucolipin-3 is 10.5 µM (not active); at Ion channel NompC, > 29.9 µM (not active).
On to `O=C(NCc1ccc(Cl)c(Cl)c1)c1cccs1`, for which, on Chaperone protein dnaK, the Kd (in general, the equilibrium constant for the complex coming apart) is 7.3 µM (active).
In the case of `Cc1cc2nc3s/c(=C/c4ccc(-c5ccccc5C(=O)O)o4)c(=O)n3c2cc1C`, the half-inhibitory concentration (IC50) in [10] was 2.39 µM (active); in test [1], 3.63 µM (active); in test [11], 7.49 µM (active); in [2] it was 26.4 µM (active); in test [3], > 100 µM (not active); in test [4] it was 9 µM (active). Moreover, the half-inhibitory concentration (IC50) in test [12] was 2.65 µM (active). The EC50 in test [13] is 5.96 µM (active).
For the compound `CCc1ccc(NC(=O)Cn2c(SC)nc3ccccc32)cc1`, the EC50 in test [14] and in [15] was > 50 µM (not active) throughout.
